According to PubChem BioAssay AID488870 (Broad Institute, 2010):
Activity calls are given as the source filed them.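 Rule for the calls: active = a drop in nitrite signal whose fitted half-maximal concentration is at most ten times the top tested dose; inconclusive = flat fit with 30 to 70% inhibition, or poor curve fit; inactive = the rest.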

Test system: not listed separately
Test: suppression of NO production in INS-1E cells – cell-based, Griess absorbance, dry powder, set 3, dose response (AID 488870)
Details: INS-1E cytokine-induced nitrite, Griess absorbance, 48 h; at 19.5 µM (top of the series)

| SMILES | activity change, negative = inhibition |
| --- | --- |
| COc1ccc(S(=O)(=O)N(C)C[C@@H]2Oc3c(NC(=O)c4cccc5ccccc45)cccc3C(=O)N([C@@H](C)CO)C[C@H]2C)cc1 | -13.8% (inactive) |
| Cc1noc(C)c1NC(=O)N(C)C[C@@H]1Oc2c(NC(=O)Nc3cccc4ccccc34)cccc2C(=O)N([C@@H](C)CO)C[C@H]1C | -7.11% (inactive) |
| COc1ccc(S(=O)(=O)N(C)C[C@@H]2Oc3c(NC(=O)C4CC4)cccc3C(=O)N([C@@H](C)CO)C[C@H]2C)cc1 | -4.99% (inactive) |
| CNC[C@@H]1Oc2c(NC(=O)Nc3cccc4ccccc34)cccc2C(=O)N([C@@H](C)CO)C[C@H]1C | 3.1% (inactive) |
| COc1ccc(S(=O)(=O)N(C)C[C@@H]2Oc3c(cccc3N(C)C)C(=O)N([C@@H](C)CO)C[C@H]2C)cc1 | 4.92% (inactive) |
| COc1ccc(S(=O)(=O)N(C)C[C@@H]2Oc3c(NC(=O)Nc4cccc5ccccc45)cccc3C(=O)N([C@@H](C)CO)C[C@@H]2C)cc1 | -1.85% (inactive) |
| COc1ccc(S(=O)(=O)N(C)C[C@@H]2Oc3ccc(NC(=O)Nc4cccc5ccccc45)cc3C(=O)N([C@@H](C)CO)C[C@H]2C)cc1 | -15.4% (inactive) |
| C[C@@H]1CN([C@@H](C)CO)C(=O)c2cccc(NC(=O)Nc3cccc4ccccc34)c2O[C@H]1CN(C)S(=O)(=O)c1ccc2c(c1)oc(=O)n2C | -7.4% (inactive) |
| C[C@@H]1CN([C@@H](C)CO)C(=O)c2cccc(NC(=O)Nc3cccc4ccccc34)c2O[C@H]1CN(C)S(C)(=O)=O | 9.52% (inactive) |
| C[C@@H]1CN([C@@H](C)CO)C(=O)c2cccc(NC(=O)Nc3ccc(F)cc3)c2O[C@H]1CN(C)S(=O)(=O)c1ccc(F)cc1 | -6.48% (inactive) |
| C[C@@H]1CN([C@@H](C)CO)C(=O)c2cccc(NC(=O)Nc3ccc(F)cc3)c2O[C@H]1CN(C)S(=O)(=O)c1ccc(Cl)cc1 | -9.62% (inactive) |
| COc1ccc(S(=O)(=O)N(C)C[C@H]2Oc3c(NC(=O)Nc4cccc5ccccc45)cccc3C(=O)N([C@H](C)CO)C[C@H]2C)cc1 | -1.83% (inactive) |
| COc1ccc(S(=O)(=O)N(C)C[C@@H]2Oc3c(NC(=O)Nc4ccc(C(F)(F)F)cc4)cccc3C(=O)N([C@@H](C)CO)C[C@H]2C)cc1 | -18.3% (inactive) |
| COc1ccc(S(=O)(=O)N(C)C[C@@H]2Oc3c(NS(=O)(=O)c4ccccc4)cccc3C(=O)N([C@@H](C)CO)C[C@H]2C)cc1 | 2.87% (inactive) |
| Cc1ccc(S(=O)(=O)N(C)C[C@@H]2Oc3c(NC(=O)Nc4ccc(F)cc4)cccc3C(=O)N([C@@H](C)CO)C[C@H]2C)cc1 | -6.25% (inactive) |
| COc1ccc(S(=O)(=O)N(C)C[C@@H]2Oc3c(NS(C)(=O)=O)cccc3C(=O)N([C@@H](C)CO)C[C@H]2C)cc1 | -4.1% (inactive) |

Test system: INS-1E cytokine-induced nitrite, Griess absorbance, 48 h
Test: as above
Details: not given

| SMILES | AC50 |
| --- | --- |
| Cc1ccc(S(=O)(=O)N(C)C[C@H]2Oc3c(NC(=O)Nc4cccc5ccccc45)cccc3C(=O)N([C@@H](C)CO)C[C@@H]2C)cc1 | > 19.5 µM (inactive) |
| C[C@@H]1CN([C@H](C)CO)C(=O)c2cccc(NC(=O)Nc3ccccc3)c2O[C@H]1CN(C)S(=O)(=O)c1ccc(F)cc1 | > 19.5 µM (inactive) |
